Calls of active or inactive are those of the source. The rule behind the calls is not given here.
Tests used:
Type in all cases: functional, cell-based
Jurkat [1] = assay: Induction of cell cycle arrest in human Jurkat cells assessed as accumulation at G2/M phase after 48 hrs
Jurkat [2] = assay: Induction of apoptosis in human Jurkat cells assessed as hypodiploidic cells after 72 hrs
Jurkat [3] = assay: Induction of DNA fragmentation at G2/M phase in human Jurkat cells after 72 hrs by propidium iodide and FITC-dUTP double staining
Jurkat [4] = assay: Induction of cell cycle arrest in human Jurkat cells assessed as accumulation at G2/M phase at 25 ug/mL after 48 hrs
Jurkat [5] = assay: Induction of DNA fragmentation at G1/S phase in human Jurkat cells after 72 hrs by propidium iodide and FITC-dUTP double staining

SMILES | Activity (Jurkat [1]) | Activity (Jurkat [2]) | Activity (Jurkat [3]) | Activity (Jurkat [4]) | Activity (Jurkat [5])
CC1(C)O[C@@H]1COc1c2occc2cc2ccc(=O)oc12 | Active | Active | Active |  | 
CC(C)=CCOc1c2occc2cc2ccc(=O)oc12 | inactive |  |  | inactive | Active

Reference: ChEMBL document CHEMBL1151162, “Coumarins from Opopanax chironium. New dihydrofuranocoumarins and differential induction of apoptosis by imperatorin and heraclenin” (J Nat Prod, 2004)
